One block for each compound: values may come before it. Activity calls are given as the source filed them.
Experiments:
[1] = HGIII-sPLA2 enzyme inhibition potency – biochemical, QFRET, IC50, dose response (AID 743457);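 further: green fluorescence rise as the enzyme cleaves BODIPY PC-A2 in liposomes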
[2] = inhibition of ADAM10 peptide cleavage – biochemical, FRET peptide substrate, recombinant human ADAM10, selectivity assay for ADAM17 exosite inhibitor project, dose response (AID 743259);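 further: ADAM10 enzyme cleaving a FRET peptide substrate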
[3] = biological target: T1, Disintegrin and metalloproteinase domain-containing protein 17 (Homo sapiens, UniProt P78536); assay: exosite inhibitors of ADAM17, dose response, biochemical (AID 743260)
T1 sequence (P78536 whole entry, the tested form may be a part): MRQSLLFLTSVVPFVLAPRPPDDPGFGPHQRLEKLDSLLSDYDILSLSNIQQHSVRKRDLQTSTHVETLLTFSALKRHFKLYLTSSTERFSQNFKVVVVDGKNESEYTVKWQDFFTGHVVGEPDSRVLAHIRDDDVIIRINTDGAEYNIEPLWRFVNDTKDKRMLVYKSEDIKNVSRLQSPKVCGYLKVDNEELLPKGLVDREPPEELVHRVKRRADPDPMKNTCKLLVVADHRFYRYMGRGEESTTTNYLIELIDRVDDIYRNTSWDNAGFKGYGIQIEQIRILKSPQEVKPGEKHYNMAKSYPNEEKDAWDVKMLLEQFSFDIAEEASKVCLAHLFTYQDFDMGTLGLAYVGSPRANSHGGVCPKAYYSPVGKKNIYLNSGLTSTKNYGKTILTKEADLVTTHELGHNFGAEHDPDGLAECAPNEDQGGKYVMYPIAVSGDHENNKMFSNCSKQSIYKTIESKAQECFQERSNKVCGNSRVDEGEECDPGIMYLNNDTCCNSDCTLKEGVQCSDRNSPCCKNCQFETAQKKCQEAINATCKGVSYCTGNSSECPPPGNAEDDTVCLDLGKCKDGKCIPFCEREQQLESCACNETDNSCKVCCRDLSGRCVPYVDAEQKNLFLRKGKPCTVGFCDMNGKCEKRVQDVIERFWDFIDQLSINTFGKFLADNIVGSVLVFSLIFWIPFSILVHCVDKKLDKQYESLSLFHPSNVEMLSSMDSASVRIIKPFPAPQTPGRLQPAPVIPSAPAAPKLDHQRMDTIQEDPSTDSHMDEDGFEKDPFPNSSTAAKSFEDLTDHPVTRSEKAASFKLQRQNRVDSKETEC

[4] = potency of ADAM10 substrate cleavage blockers – biochemical, QFRET, dose response (AID 743254);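 further: ADAM10 enzyme with the DM2 quenched FRET peptide as substrate; EDANS fluorescence gain as the protease cuts the substrate; inhibitor potency against ADAM10 proteolytic activity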
[5] = biological target: T1, Disintegrin and metalloproteinase domain-containing protein 17; assay: inhibition of ADAM17 substrate cleavage – biochemical, quenched FRET substrate, counter-screen for ADAM10 exosite inhibitor project, dose response (AID 743253)
[6] = biological target: 1-phosphatidylinositol 4,5-bisphosphate phosphodiesterase beta-3 (Homo sapiens, UniProt Q01970); assay: Fluorescence-based biochemical high throughput dose response assay to identify inhibitors of phospholipase C isozymes (PLC-B3).
[7] = biological target: 1-phosphatidylinositol 4,5-bisphosphate phosphodiesterase gamma-1 (Homo sapiens, UniProt P19174); assay: Counterscreen for inhibitors of phospholipase C isozymes (PLC-B3): Fluorescence-based biochemical high throughput dose response assay to identify inhibitors of phospholipase C isozymes (PLC-gamma1).
Sequence of 1-phosphatidylinositol 4,5-bisphosphate phosphodiesterase gamma-1 (P19174 whole entry): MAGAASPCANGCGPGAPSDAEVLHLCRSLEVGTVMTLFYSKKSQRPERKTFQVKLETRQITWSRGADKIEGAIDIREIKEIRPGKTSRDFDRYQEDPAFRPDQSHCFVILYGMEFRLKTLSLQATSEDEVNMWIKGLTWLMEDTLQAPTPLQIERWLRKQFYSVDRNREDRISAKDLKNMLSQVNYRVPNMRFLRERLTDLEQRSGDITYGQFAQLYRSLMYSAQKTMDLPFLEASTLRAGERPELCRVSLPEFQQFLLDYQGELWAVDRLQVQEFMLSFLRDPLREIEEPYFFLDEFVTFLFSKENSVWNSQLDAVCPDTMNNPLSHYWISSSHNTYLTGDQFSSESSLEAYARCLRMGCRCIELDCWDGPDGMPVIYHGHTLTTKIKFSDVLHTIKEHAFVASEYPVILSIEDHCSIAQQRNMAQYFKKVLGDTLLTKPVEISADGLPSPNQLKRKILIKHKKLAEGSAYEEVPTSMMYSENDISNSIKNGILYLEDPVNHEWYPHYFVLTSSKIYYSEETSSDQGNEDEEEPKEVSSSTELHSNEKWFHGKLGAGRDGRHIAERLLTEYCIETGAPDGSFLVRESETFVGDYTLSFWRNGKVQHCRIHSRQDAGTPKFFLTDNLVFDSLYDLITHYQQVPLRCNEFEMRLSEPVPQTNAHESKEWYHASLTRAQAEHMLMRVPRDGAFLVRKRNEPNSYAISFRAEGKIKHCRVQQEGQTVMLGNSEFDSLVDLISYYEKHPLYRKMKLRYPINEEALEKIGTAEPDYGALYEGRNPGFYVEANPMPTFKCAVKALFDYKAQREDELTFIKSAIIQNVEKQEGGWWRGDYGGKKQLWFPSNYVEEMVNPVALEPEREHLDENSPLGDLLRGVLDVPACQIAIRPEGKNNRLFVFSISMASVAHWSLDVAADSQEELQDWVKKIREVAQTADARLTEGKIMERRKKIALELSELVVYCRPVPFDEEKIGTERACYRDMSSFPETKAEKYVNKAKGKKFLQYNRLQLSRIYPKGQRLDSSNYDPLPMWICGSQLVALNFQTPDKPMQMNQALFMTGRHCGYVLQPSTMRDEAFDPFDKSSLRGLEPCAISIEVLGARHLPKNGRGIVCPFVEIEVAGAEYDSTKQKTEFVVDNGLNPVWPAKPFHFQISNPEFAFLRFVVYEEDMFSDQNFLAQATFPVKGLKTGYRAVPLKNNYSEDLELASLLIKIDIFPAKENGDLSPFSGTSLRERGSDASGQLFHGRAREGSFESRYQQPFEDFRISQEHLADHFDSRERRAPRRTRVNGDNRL

Albumin = Albumin (Bos taurus, UniProt P02769); assay: Counterscreen for inhibitors of T-cell receptor (TCR)-CD3 interaction: Fluorescence-based biochemical high throughput dose response assay to identify inhibitors of T-cell receptor (TCR)-CD3 interaction using a TAMRA-labeled BSA probe.; format: functional
[8] = biological target: Induced myeloid leukemia cell differentiation protein Mcl-1 (Homo sapiens, UniProt Q07820); format: functional
[9] = blockade of melanocortin 4 receptor signaling – cell-based, plate reader, cherry pick, counter-screen for LGR2 antagonist project, dose response (AID 743444); format: functional;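 further: transfected HEK 293 cells stimulated with alpha-MSH peptide; potency of inhibitors of the alpha-MSH evoked signal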
Melanocortin receptor 4 = Melanocortin receptor 4 (Homo sapiens, UniProt P32245); assay: inhibitors of MC4R cAMP signaling – cell-based, TR-FRET, biased antagonists, dose response (AID 602298); format: functional;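 further: antagonist potency against agonist-stimulated cAMP production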
Sequence of Melanocortin receptor 4 (P32245 whole entry): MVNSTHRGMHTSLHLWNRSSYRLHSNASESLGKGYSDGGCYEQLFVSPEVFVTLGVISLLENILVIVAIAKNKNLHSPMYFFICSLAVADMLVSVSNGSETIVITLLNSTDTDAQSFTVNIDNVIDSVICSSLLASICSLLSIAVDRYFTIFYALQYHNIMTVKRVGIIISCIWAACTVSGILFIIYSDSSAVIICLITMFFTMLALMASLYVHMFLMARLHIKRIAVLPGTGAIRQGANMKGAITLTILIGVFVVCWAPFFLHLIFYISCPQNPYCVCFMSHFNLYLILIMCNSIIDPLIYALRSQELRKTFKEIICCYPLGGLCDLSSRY

[10] = cAMP pathway inhibition in counterscreen cell line – TR-FRET cAMP detection, counter-screen for MC4R biased antagonist project, dose response (AID 602305); format: functional, cell-based;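 further: U2OS cells stimulated with forskolin near its EC80 as the cAMP inducer; potency is for inhibition of forskolin-stimulated cAMP signaling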
[11] = toxicity toward HepG2 liver cells – cell-based, plate reader, cherry-pick, antagonist series, cytotoxicity control, dose response (AID 743416); format: functional
[12] = blockers of bursicon-stimulated LGR2 cAMP reporter – cell-based, HEK293, CRE-luciferase reporter, cherry pick, set 2, dose response (AID 743343); format: functional;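 further: transfected cells were stimulated with diluted bursicon conditioned medium after compound addition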
[13] = A549 cell cytotoxicity, dose response, cytotoxicity control, plate reader, cherry-pick, antagonist series (AID 743412); format: functional, cell-based
[14] = viability loss in HEK293 cells – cell-based, plate reader, cherry-picked samples, cytotoxicity control, dose response (AID 743446); format: functional
[15] = general cell-killing toxicity readout – plate reader, dry powder samples, cytotoxicity control for PAX8 inhibitor project, dose response (AID 743021); format: functional, cell-based
[16] = A2780 cell killing – plate reader, dry powder samples, cytotoxicity control, dose response (AID 743046); format: functional, cell-based
Paired box protein Pax-8 = Paired box protein Pax-8 (Homo sapiens, UniProt Q06710); assay: PAX8 transcriptional activity inhibition in RMG-I – RMG-I cells, luciferase, cherry-pick, dose response (AID 687027); format: functional, cell-based;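 further: luciferase reporter driven by Pax8 target thyroperoxidase promoter measured by SteadyGlo luminescence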
Sequence of Paired box protein Pax-8 (Q06710 whole entry): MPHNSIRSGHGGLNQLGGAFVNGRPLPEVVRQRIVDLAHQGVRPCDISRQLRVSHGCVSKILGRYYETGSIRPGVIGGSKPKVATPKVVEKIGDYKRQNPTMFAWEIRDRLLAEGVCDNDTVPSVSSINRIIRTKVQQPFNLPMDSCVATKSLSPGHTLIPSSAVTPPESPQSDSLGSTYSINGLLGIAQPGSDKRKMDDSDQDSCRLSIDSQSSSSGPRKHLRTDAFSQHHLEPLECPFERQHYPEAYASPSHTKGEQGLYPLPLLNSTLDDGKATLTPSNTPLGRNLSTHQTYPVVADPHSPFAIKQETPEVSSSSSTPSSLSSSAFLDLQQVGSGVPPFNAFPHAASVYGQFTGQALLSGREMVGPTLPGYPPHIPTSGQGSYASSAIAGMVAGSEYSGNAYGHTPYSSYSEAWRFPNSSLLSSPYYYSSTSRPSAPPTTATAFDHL

[17] = OVCAR8 cell viability loss – plate reader, dry powder samples, PAX8 project, dose response (AID 743197); format: functional, cell-based; conditions: OVCAR-8
[18] = IGROV1 cell killing – plate reader, dry powder samples, PAX8 inhibitor project, dose response (AID 743043); format: functional, cell-based; conditions: IGROV-1
[19] = OVCAR-3 cell viability loss – plate reader, dry powder samples, PAX8 inhibitor project, dose response (AID 743044); format: functional, cell-based
[20] = toxicity toward immortalized ovarian surface epithelium – cell-based, plate reader, dry powder samples, cytotoxicity control for PAX8 inhibitor project, dose response (AID 743045); format: functional
[21] = biological target: T2, Oxysterols receptor LXR-beta (Homo sapiens, UniProt P55055); format: functional, cell-based;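 further: agonist activity at LXR measured by a cell-based luminescence readout across a dose range, run as a counterscreen for daf-12 agonists; HEK293 cells with Gal4-LXR fusion and GAL4-driven luciferase reporter; potency for activation of Gal4-LXR reporter so compounds are agonists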
T2 sequence (P55055 whole entry): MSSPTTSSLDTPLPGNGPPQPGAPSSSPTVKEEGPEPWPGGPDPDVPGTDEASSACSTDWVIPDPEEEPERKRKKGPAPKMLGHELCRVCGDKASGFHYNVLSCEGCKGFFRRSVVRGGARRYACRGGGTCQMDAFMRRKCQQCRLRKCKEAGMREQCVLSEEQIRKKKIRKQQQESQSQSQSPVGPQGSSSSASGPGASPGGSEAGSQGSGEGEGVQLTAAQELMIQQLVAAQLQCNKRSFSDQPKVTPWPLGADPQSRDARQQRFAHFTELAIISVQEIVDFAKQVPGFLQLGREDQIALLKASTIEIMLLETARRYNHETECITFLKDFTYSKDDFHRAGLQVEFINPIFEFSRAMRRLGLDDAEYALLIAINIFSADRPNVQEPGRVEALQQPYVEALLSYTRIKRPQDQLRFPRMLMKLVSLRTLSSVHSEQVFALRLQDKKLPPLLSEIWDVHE

[22] = biological target: Metabotropic glutamate receptor 3 (Rattus norvegicus, UniProt P31422); assay: inhibitors of rat mGlu3 Galpha15 signaling – TREx293 cells, calcium flux, mGlu3 NAM project, dose response (AID 651840); format: functional
Sequence of Metabotropic glutamate receptor 3 (P31422 whole entry): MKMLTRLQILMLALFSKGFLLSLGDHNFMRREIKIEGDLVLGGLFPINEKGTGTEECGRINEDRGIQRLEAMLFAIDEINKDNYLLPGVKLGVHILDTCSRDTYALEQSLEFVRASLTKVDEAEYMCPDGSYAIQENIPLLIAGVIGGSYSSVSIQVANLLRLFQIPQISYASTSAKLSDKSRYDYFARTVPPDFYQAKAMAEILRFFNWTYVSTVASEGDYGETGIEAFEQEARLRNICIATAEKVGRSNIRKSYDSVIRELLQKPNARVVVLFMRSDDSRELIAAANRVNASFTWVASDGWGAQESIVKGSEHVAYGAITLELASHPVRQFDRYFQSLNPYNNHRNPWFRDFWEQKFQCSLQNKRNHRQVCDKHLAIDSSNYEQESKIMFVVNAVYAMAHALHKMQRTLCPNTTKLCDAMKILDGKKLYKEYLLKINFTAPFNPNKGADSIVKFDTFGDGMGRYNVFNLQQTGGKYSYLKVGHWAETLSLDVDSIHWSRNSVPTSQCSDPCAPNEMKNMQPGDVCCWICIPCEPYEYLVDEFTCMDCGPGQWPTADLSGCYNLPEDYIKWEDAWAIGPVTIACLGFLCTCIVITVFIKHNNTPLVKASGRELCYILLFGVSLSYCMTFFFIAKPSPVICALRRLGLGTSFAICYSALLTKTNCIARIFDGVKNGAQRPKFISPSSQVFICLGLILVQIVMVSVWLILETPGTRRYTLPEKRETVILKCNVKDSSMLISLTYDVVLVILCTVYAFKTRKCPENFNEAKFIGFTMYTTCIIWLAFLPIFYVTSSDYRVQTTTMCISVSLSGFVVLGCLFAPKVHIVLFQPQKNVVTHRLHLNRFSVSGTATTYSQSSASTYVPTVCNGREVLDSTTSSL

[23] = biological target: Metabotropic glutamate receptor 5 (Rattus norvegicus, UniProt P31424); assay: Identification of a glycine sulfonamide based non-MPEP site positive allosteric potentiator (PAM) of mGlu5 (calcium_assay).; format: functional
Sequence of Metabotropic glutamate receptor 5 (P31424 whole entry): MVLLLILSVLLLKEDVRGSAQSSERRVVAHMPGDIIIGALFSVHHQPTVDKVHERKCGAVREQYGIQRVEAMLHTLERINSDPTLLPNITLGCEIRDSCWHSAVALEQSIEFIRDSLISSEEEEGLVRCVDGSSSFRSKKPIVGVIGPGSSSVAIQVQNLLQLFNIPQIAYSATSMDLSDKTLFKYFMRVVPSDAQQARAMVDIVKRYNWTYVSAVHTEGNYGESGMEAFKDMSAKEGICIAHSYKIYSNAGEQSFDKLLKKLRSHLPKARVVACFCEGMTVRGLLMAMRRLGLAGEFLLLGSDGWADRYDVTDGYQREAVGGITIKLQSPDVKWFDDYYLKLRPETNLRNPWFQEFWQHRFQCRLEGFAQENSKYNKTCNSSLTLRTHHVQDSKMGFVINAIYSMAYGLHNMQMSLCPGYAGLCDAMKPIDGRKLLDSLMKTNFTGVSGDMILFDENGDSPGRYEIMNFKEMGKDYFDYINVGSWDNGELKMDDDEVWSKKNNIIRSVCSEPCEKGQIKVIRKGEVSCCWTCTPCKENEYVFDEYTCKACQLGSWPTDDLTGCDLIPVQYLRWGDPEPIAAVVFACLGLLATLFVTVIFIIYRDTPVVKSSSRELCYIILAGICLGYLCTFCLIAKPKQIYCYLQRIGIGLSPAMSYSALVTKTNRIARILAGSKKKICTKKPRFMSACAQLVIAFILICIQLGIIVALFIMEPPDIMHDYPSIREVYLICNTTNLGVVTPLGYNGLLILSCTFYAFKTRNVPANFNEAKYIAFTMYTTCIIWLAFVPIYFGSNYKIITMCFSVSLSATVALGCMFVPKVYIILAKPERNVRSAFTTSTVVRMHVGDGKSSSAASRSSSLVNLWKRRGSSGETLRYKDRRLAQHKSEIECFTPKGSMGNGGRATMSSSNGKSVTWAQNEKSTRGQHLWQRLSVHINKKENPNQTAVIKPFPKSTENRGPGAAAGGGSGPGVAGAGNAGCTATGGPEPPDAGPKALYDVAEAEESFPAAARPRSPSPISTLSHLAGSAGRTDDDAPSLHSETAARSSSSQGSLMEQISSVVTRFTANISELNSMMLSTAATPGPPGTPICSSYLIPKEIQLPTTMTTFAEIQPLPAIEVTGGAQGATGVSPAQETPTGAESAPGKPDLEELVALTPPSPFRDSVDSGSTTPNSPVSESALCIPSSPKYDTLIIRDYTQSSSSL

[24] = PAX5 cellular inhibition readout – cell-based, plate reader, dry powder samples, selectivity assay for PAX8 inhibitor project, dose response (AID 743047); format: functional;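 further: HEK293 cells carrying a Pax5 driven CD19 promoter luciferase reporter; potency of inhibitors that lower reporter luminescence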
[25] = OV-90 cell viability loss – plate reader, dry powder, SA8, PAX8 inhibitor project, dose response (AID 743149); format: functional, cell-based
[26] = PAX8-dependent cell viability loss – plate reader, dry powder, dose response (AID 743049); format: functional, cell-based
[27] = inhibitors acting on PAX2 in cells – cell-based, plate reader, dry powder samples, selectivity assay for PAX8 inhibitor project, dose response (AID 743048); format: functional;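 further: HEK293 cells carrying a WT1 promoter luciferase reporter driven by expressed Pax2; potency is for inhibition of Pax2 driven reporter signal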
[28] = COV434 cell viability loss – plate reader, dry powder, SA7, cytotoxicity control for PAX8 inhibitor project, dose response (AID 743145); format: functional, cell-based
[29] = toxicity to human hepatoma HepG2 cells – cell-based, cherry-picked samples, cytotoxicity control, dose response (AID 1159577); format: functional
[30] = Dd2 malaria parasite growth inhibition potency – SYBR Green, dry powder samples, dose response (AID 1159566); format: functional, cell-based;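 further: potency for growth inhibition with lower SYBR green DNA signal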
[31] = growth inhibition of PfATP4-mutant resistant parasites – NITD609-resistant line, SYBR Green, dry powder, dose response (AID 1159571); format: functional, cell-based;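 further: parasites synchronized at ring stage by sorbitol before testing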
[32] = growth inhibition of yeast DHODH-expressing 3D7 parasites – SYBR Green, dry powder samples, dose response (AID 1159570); format: functional, cell-based;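 further: parasite growth measured after 72 hours of compound exposure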
[33] = P. falciparum Dd2 growth inhibitors, dose response, SYBR Green, cherry-picked samples (AID 1159567); format: functional, cell-based
[34] = toxicity to human HepG2 hepatoma cells – cell-based, plate reader, dry powder samples, cytotoxicity control, dose response (AID 1159569); format: functional;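 further: inhibitor potency with signal falling toward the positive control level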

IC50 [1]: > 122 µM (inactive)
Compound: c1ccc2c(c1)c1c3n2CCNC3CCC1 (centres undefined)

IC50 [3]: > 69.5 µM (inactive)
Compound: COc1ccccc1NC(=O)Cn1nc(-c2ccc(Cl)cc2)c2ccccc2c1=O
IC50 [2]: 16.3 µM (inactive)

IC50 [6]: > 122 µM (inactive)
IC50 [7]: > 122 µM (inactive)
IC50 (Albumin): > 94.1 µM (inactive)
IC50 [8]: 3.16 µM (not active)
Compound: O=C1/C(=C/c2ccco2)SC(=S)N1c1cccnc1

IC50 [4]: 7.59 µM (active)
IC50 [5]: > 69.5 µM (inactive)
Compound: CC(O)(c1ccc(F)c(F)c1)c1nc(-c2cccc(C(F)(F)F)c2)cs1 (centres undefined)

EC50 [23]: 4.4 µM
Compound: CS(=O)(=O)N(CC(=O)Nc1ccc(F)nc1)c1ccccc1Cl

EC50 [23]: 10 µM (inconclusive)
Compound: CS(=O)(=O)N1c2ccccc2CCC1C(=O)Nc1ccncc1 (centres undefined)

The remaining lines, values behind:

Compound: NC(=O)[C@H]1CC2(CC(c3cccc(NC(=O)CC(c4ccccc4)c4ccccc4)c3)=NO2)CN1C(=O)CC(c1ccccc1)c1ccccc1 (some centres undefined)
IC50 [4]: > 69.5 µM (inactive)
IC50 [5]: > 69.5 µM (inactive)

Compound: COc1ccc(CN2Cc3cnnn3-c3ccccc3C2C#N)cc1 (centres undefined)
AC50 [9]: 25.8 µM (active)
IC50 (Melanocortin receptor 4): 26.3 µM (inactive)
IC50 [10]: > 64.7 µM (inactive)
AC50 [11]: > 52 µM (inactive)
AC50 [12]: 27.1 µM (active)
AC50 [13]: 20.6 µM (active)
AC50 [14]: 12.7 µM (active)

Compound: C[C@H](CO)N1C[C@H](C)[C@@H](CN(C)S(=O)(=O)c2ccc(F)cc2)OCCCC[C@H](C)Oc2ccc(NS(=O)(=O)c3ccc(Cl)cc3)cc2C1=O
AC50 [15]: 49.2 µM (active)
AC50 [16]: 23.3 µM (active)
AC50 (Paired box protein Pax-8): 4.97 µM (active)
AC50 [17]: 14.9 µM (active)
AC50 [18]: 35.1 µM (active)
AC50 [19]: 11.9 µM (active)
AC50 [20]: 13.1 µM (active)

Compound: Cc1ccc(N/N=C(\C#N)C(=N)N2CCCCCC2)cc1
EC50 [21]: > 67.5 µM (inactive)

Compound: C=CCC1(O)CCCN(C(=O)c2ccc(C#Cc3ccc(OC)cc3)cc2)C1 (centres undefined)
IC50 [22]: 0.783 µM

Compound: COc1ccccc1C#Cc1ccc([C@H]2[C@@H](CO)N(C(=O)C3CCCC3)[C@H]2C#N)cc1
AC50 [24]: 23 µM (active)
AC50 [25]: > 70 µM (inactive)
AC50 [26]: 40.7 µM (active)
AC50 [27]: 27.6 µM (active)
AC50 [28]: > 70 µM (inactive)
AC50 [18]: 37.4 µM (active)
AC50 [19]: 48.3 µM (active)

Compound: COc1ccc(C#Cc2ccc(C(=O)N3CCCC(C)(C)C3)cc2)cc1
IC50 [22]: 2.01 µM

Compound: C[C@@H]1CN([C@@H](C)CO)C(=O)Cc2cc(NC(=O)Nc3ccc4c(c3)OCO4)ccc2O[C@H]1CN(C)Cc1ccc2c(c1)OCO2
AC50 [29]: > 39 µM (inactive)

Compound: C[C@@H]1CN([C@@H](C)CO)C(=O)c2c(c3ccccc3n2C)-c2ccccc2CO[C@@H]1CN(C)C(=O)Nc1ccc(-c2ccccc2)cc1
AC50 [30]: 1.48 µM (active)
AC50 [31]: 1.46 µM (active)
AC50 [29]: > 42 µM (inactive)
AC50 [32]: 2.36 µM (active)
AC50 [33]: 1.93 µM (active)
AC50 [34]: > 100 µM (inactive)

Source: ChEMBL document CHEMBL1201862, “PubChem BioAssay data set” (2004)
